# Like-named read-outs stand apart in the source and are kept apart here.
# How the values were obtained:
# [1] = tested on: E. coli strains with elevated MICs to Polymyxin B; experiment: MIC against strains with elevated MICs to Polymyxin B; format: cell-based, Escherichia coli; conditions: Table 6D; for MIC E. coli 058: strain 058, elevated MIC to Polymyxin B; for MIC E. coli 059: strain 059, elevated MIC to Polymyxin B; for MIC E. coli 060: strain 060, elevated MIC to Polymyxin B; for MIC E. coli 061: strain 061, elevated MIC to Polymyxin B
# Outline: (§1)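 Duplicate runs; >2-fold disagreement = invalid, <2-fold = lower value kept. Inoculum: colonies (18-24 h Mueller-Hinton agar) suspended directly to 0.5 McFarland. Multiple tests → modal MIC.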
# [2] = tested on: A. baumanii strains with elevated MICs to Polymyxin B; experiment: as above; format: cell-based, Acinetobacter baumannii; conditions: Table 6D; for MIC A. baumannii 053: strain 053, elevated MIC to Polymyxin B; for MIC A. baumannii 056: strain 056, elevated MIC to Polymyxin B; for MIC A. baumannii 068: strain 068, elevated MIC to Polymyxin B; for MIC A. baumannii 070: strain 070, elevated MIC to Polymyxin B
# Outline: as §1
# [3] = tested on: P. aeruginosa strains with elevated MICs to Polymyxin B; experiment: MIC against strains with elevated MICs to Polymyxin B; format: cell-based, Pseudomonas aeruginosa; conditions: Table 6D; for MIC P. aeruginosa 065: strain 065, elevated MIC to Polymyxin B; for MIC P. aeruginosa 066: strain 066, elevated MIC to Polymyxin B; for MIC P. aeruginosa 067: strain 067, elevated MIC to Polymyxin B
# Outline: as §1
# [4] = tested on: K. pneumoniae strains with elevated MICs to Polymyxin B; experiment: as above; format: cell-based, Klebsiella pneumoniae; conditions: Table 6D; for MIC K. pneumoniae 063: strain 063, elevated MIC to Polymyxin B; for MIC K. pneumoniae 064: strain 064, elevated MIC to Polymyxin B; for MIC K. pneumoniae 062: strain 062, elevated MIC to Polymyxin B; for MIC K. pneumoniae 655: strain 655, elevated MIC to Polymyxin B
# Outline: as §1
# [5] = absence of a second agent, Table 6B
Substance,"MIC, E. coli ATCC 25922 (E. coli; sole activity, Table 6C) [micrograms/mL]",MIC E. coli 058 [1] [micrograms/mL],MIC E. coli 059 [1] [micrograms/mL],MIC E. coli 060 [1] [micrograms/mL],MIC E. coli 061 [1] [micrograms/mL],MIC A. baumannii 053 [2] [micrograms/mL],MIC A. baumannii 056 [2] [micrograms/mL],MIC A. baumannii 068 [2] [micrograms/mL],"MIC, A. baumannii ATCC BAA-747 (A. baumannii; sole activity, Table 6C) [micrograms/mL]","MIC, A. baumannii NCTC 13424 (A. baumannii; sole activity, Table 6C) [micrograms/mL]",MIC P. aeruginosa 065 [3] [micrograms/mL],MIC P. aeruginosa 066 [3] [micrograms/mL],MIC P. aeruginosa 067 [3] [micrograms/mL],MIC K. pneumoniae 063 [4] [micrograms/mL],MIC K. pneumoniae 064 [4] [micrograms/mL],"MIC, K. pneumoniae ATCC 4352 (K. pneumoniae; sole activity, Table 6C) [micrograms/mL]","MIC, P. aeruginosa ATCC 27853 (P. aeruginosa; sole activity, Table 6C) [micrograms/mL]","MIC, P. aeruginosa CCUG 59347 (P. aeruginosa; sole activity, Table 6C) [micrograms/mL]",MIC A. baumannii 070 [2] [micrograms/mL],MIC K. pneumoniae 655 [4] [micrograms/mL],also measured
(S)-1-isobutyl piperazine-2- carbonyl-L-Thr- L-Dap-polymyxin B heptapeptide [Example D69],0.25,8,16,8,32,>256,256,32,0.25,0.5,16,32,>256,128,32,0.125,0.5,0.5,–,–,"MIC, E. coli NCTC 13441 (E. coli; sole activity, Table 6C): 0.125 micrograms/mL"
(S)-3-amino-2- ((2- trifluoromethylben- zyl)amino)propa- noyl L-Thr-L- Dap-polymyxin B heptapeptide [Example D76],0.125,4,6,2,8,64,16,8,0.06,0.25,2,2,64,16,2,0.06,0.25,0.25,16,16,"MIC, E. coli NCTC 13441 (E. coli; sole activity, Table 6C): 0.25 micrograms/mL; MIC K. pneumoniae 062 [4]: 64 micrograms/mL; MIC, K. pneumoniae ATCC BAA-2146 (K. pneumoniae; sole activity, Table 6C): 0.125 micrograms/mL"
(S)-4-amino-2- ((2- trifluoromethyben- zyl)amino)butanoyl L-Thr-L-Dap- polymyxin B heptapeptide [Example D88],0.06,2,8,4,16,>64,32,8,0.06,0.06,0.25,1,>64,16,1,0.06,0.125,0.5,16,16,MIC K. pneumoniae 062 [4]: 32 micrograms/mL
(S)-4-amino-2- (((S)-6- methyloctyl)amino) butanoyl polymyxin B nonapeptide [Example D90],0.25,2,2,2,8,32,8,2,0.25,0.25,0.25,8,32,32,4,0.25,0.5,0.25,2,16,MIC K. pneumoniae 062 [4]: 16 micrograms/mL
(cis-5-octylpiperidine)- 3-carbonyl polymyxin B nonapeptide [Example D20],–,–,4,16,32,>64,>64,32,–,–,–,64,>64,>64,>64,–,–,–,64,>64,"MIC, E. coli ATCC 25922 (E. coli; [5]): 4 micrograms/mL; MIC, E. coli NCTC 13441 (E. coli; [5]): 4 micrograms/mL; MIC, A. baumannii ATCC BAA-747 (A. baumannii; [5]): >8 micrograms/mL; MIC, A. baumannii NCTC 13424 (A. baumannii; [5]): >8 micrograms/mL; MIC K. pneumoniae 062 [4]: >64 micrograms/mL; MIC, K. pneumoniae ATCC 4352 (K. pneumoniae; [5]): 8 micrograms/mL; MIC, K. pneumoniae ATCC BAA-2146 (K. pneumoniae; [5]): >8 micrograms/mL; MIC, P. aeruginosa ATCC 27853 (P. aeruginosa; [5]): 0.5 micrograms/mL; MIC, P. aeruginosa CCUG 59347 (P. aeruginosa; [5]): 1 micrograms/mL"
(cis-5-octylpiperidine)- 3-carbonyl polymyxin B nonapeptide [Example D21],–,1,0.5,1,2,8,4,1,–,–,–,2,4,32,1,–,–,–,2,32,"MIC, E. coli ATCC 25922 (E. coli; [5]): 0.5 micrograms/mL; MIC, E. coli NCTC 13441 (E. coli; [5]): 0.5 micrograms/mL; MIC, A. baumannii ATCC BAA-747 (A. baumannii; [5]): 0.5 micrograms/mL; MIC, A. baumannii NCTC 13424 (A. baumannii; [5]): 2 micrograms/mL; MIC K. pneumoniae 062 [4]: 2 micrograms/mL; MIC, K. pneumoniae ATCC 4352 (K. pneumoniae; [5]): 0.25 micrograms/mL; MIC, K. pneumoniae ATCC BAA-2146 (K. pneumoniae; [5]): 1 micrograms/mL; MIC, P. aeruginosa ATCC 27853 (P. aeruginosa; [5]): 0.5 micrograms/mL; MIC, P. aeruginosa CCUG 59347 (P. aeruginosa; [5]): 0.5 micrograms/mL"
(trans-5- (cyclohexyl- piperidine)-3- carbonyl L-Thr-L- Dap-polymyxin B heptapeptide [Example D78],0.125,0.5,0.5,1,1,8,50.25,1,0.06,0.06,1,0.5,32,4,1,0.06,0.5,0.5,1,4,"MIC, E. coli NCTC 13441 (E. coli; sole activity, Table 6C): 0.125 micrograms/mL; MIC, K. pneumoniae ATCC BAA-2146 (K. pneumoniae; sole activity, Table 6C): 0.125 micrograms/mL"
